Measurements reported in patent publication US10501748B2, “Methods and compositions for integration of an exogenous sequence within the genome of plants” (Dow AgroSciences LLC, priority 2013, dated 2019).

Key:
[1] = system: somatic embryogenic callus of cv. Bobwhite MPB26RH; assay: basal tolerance to IMAZAMOX at the plant regeneration stage; assay type: cell-based, Triticum aestivum; conditions: 200 nM, 2 weeks, compared to untreated samples
Experimental: The basal tolerance of the donor wheat line cv. Bobwhite MPB26RH to IMAZAMOX® at the plant regeneration stage was determined as follows: Scutella of immature zygotic embryos from the donor wheat line were isolated as described previously and placed in 10 cm PETRI™ dishes containing CIM medium. Somatic embryogenic callus was allowed to form by incubating at 24° C. in the dark for 4 weeks. The SEC was transferred to 10 cm PETRI™ dishes containing DRM medium supplemented with 0, 100, 200, 300, 400, 500 and 1000 nM IMAZAMOX® respectively. Twenty CIM were placed in each PETRI™ dish. A total of 60 CIM were tested for basal tolerance response at each IMAZAMOX® concentration. After incubation for 2 weeks at 24° C. under a 16/8 (light/dark) hour photoperiod in a growth room, the regeneration response was recorded.

[2] = system: regenerated plants of cv. Bobwhite MPB26RH; assay: basal tolerance to IMAZAMOX at the plant rooting stage; assay type: in vivo, Triticum aestivum; conditions: all concentrations tested (100-500 nM), 3 weeks
Experimental: The basal tolerance of the donor wheat line cv. Bobwhite MPB26RH to IMAZAMOX® at the plant rooting stage was determined as follows: Scutella of immature zygotic embryos from the donor wheat line were isolated as described previously and placed in 10 cm PETRI™ dishes containing CIM medium. Somatic embryogenic callus was allowed to form by incubating at 24° C. in the dark for 4 weeks. The SEC was transferred to 10 cm PETRI™ dishes containing DRM medium and incubated for 2 weeks at 24° C. under a 16/8 (light/dark) hour photoperiod to allow plant regeneration to take place. Regenerated plants were transferred to 10 cm PETRI™ dishes containing RM medium supplemented with 0, 100, 200, 300, 400, 500 nM IMAZAMOX®, respectively. Twenty regenerated plants were placed in each PETRI™ dish. A total of 60 regenerated plants were tested for basal tolerance response at each IMAZAMOX® concentration. After incubation for 3 weeks at 24° C. under a 16/8 (light/dark) hour photoperiod in a growth room, the root formation response was recorded.

[3] = system: cv. Clearfield Janz (S653/S653) and (N653/N653) plants; assay: basal tolerance/resistance to IMAZAMOX at the plant rooting stage, modified approach; assay type: in vivo, Triticum aestivum; conditions: 2 weeks
Experimental: The basal tolerance of the cv. Clearfield Janz (S653/S653) genotype and basal resistance of the cv. Clearfield Janz (N653/N653) genotype to IMAZAMOX® at the plant rooting stage was determined using a modified approach, as cv. […] Seed for each cv. Clearfield Janz genotype was germinated using the aseptic approach described above for producing wheat mesophyll protoplasts. The germinated seedlings were multiplied in vitro by sub-culturing on multiplication medium. Following multiplication, plants for each genotype were transferred to 10 cm PETRI™ dishes containing plant rooting medium (½ MS, 0.5 mg/L NAA, 0.8% agar) supplemented with 0, 50, 100, 200 and 250 nM IMAZAMOX®, respectively. Three plants were placed in each PETRI™ dish. A total of 6 plants per genotype were tested for basal response at each IMAZAMOX® concentration. After incubation for 2 weeks at 24° C. under a 16/8 (light/dark) hour photoperiod in a growth room, the root formation response was recorded.
Clearfield Janz (N653/N653) genotype was restricted, compared to untreated samples, at 250 nM IMAZAMOX®. […] Clearfield Janz (S653/S653) genotype at all concentrations of IMAZAMOX® tested, compared to untreated samples.

[4] = system: protoplasts of SEC-derived cell suspension culture of cv. Bobwhite MPB26RH; assay: basal tolerance to IMAZAMOX of protoplast agarose bead-type cultures (calli growth); assay type: cell-based, Triticum aestivum; conditions: 2 weeks
Text: IMAZAMOX® selection conditions are optimized using protoplasts derived from somatic embryogenic callus (SEC)-derived cell suspension culture of the wheat line cv. Bobwhite MPB26RH. While protoplasts derived from Bobwhite MPB26RH are non-totipotent (i.e., cannot be used to regenerate entire plants), the selection conditions established for enriching for events expressing the AHAS (653N) mutation are expected to be transferable to any protoplast-based transformation system based on a totipotent wheat genotype, which those in the art would recognize. The experiments conducted establish the basal tolerance of the wild-type donor wheat line cv. Bobwhite MPB26RH (S653/S653 genotype, which confers susceptibility to imidazolinones) to IMAZAMOX®. The use of IMAZAMOX® selection conditions stronger than basal tolerance will strongly enrich for transformed cells expressing the AHAS (S653N) mutation.
Further transformation methods are applicable. For example a cell suspension culture for wheat line cv. Bobwhite MPB26RH can be established. Somatic embryogenic callus (SEC) is induced from immature zygotic embryos of wheat line cv. […]
The basal tolerance of wheat line cv. Bobwhite MPB26RH to IMAZAMOX® is determined by incubating the agarose bead-type cultures in media supplemented with 0, 50, 100, 200, 400 and 600 nM IMAZAMOX® and assessing the rate of calli growth after 2 weeks.

COCc1cnc(C2=NC(C)(C(C)C)C(=O)N2)c(C(=O)O)c1 (centres unmarked) [IMAZAMOX]
reduction of plant regeneration [1]: about 80% | root formation compared to untreated samples [2]: severely restricted | root formation compared to untreated samples ([3]; cv. Clearfield Janz (N653/N653), 250 nM): restricted | root formation compared to untreated samples ([3]; cv. Clearfield Janz (S653/S653), all concentrations tested (50-250 nM)): severely restricted | concentrations that impede calli development [4]: higher than 200 nM
